# Measurements published in patent US20190255114A1, “STORAGE OF PLATELETS” (University of Kentucky Research Foundation, priority 2018, published 2019).
# Legend:
# [1] = tested on: washed platelets from C57BL/6J mice; assay: Thrombin-induced platelet aggregation; type: cell-based
# Protocol: Platelets were then added with buffer or 1 mM CaCl2). Washed platelets suspended in Tyrode's solution with 1 mM CaCl2 were used as a control. Platelet aggregation was induced by addition of thrombin (0.025 U/ml).
# [2] = tested on: washed platelets from C57BL/6J mice; assay: Platelet adhesion and spreading on fibrinogen; type: cell-based; conditions: EGTA 100 μM
# Protocol: Platelets were then added with buffer or 1 mM CaCl2). Washed platelets suspended in Tyrode's solution with 1 mM CaCl2 were used as a control. Platelets were then added to polystyrene dishes coated with 50 μg/mL of fibrinogen and incubated at 37° C. for 60 minutes and labeled with Rhodamine-Phalloidin and photographed using a fluorescence microscope. […] This conclusion was further confirmed by a fibrinogen binding assay.
# [3] = tested on: washed GFP platelets; assay: Clearance of transfused cold-stored washed GFP platelets (flow cytometry); type: in vivo, C57BL/6J mice; conditions: 50 uM EGTA, stored at 4° C. for 24 hours, retro-orbital injection
# Protocol: To monitor the life span of transfused platelets in circulation, a method that can easily differentiate the transfused platelets from recipient platelets was developed. Platelets from C57BL/6-Tg(CAGEGFP)1 Osb/J mice (GFP mice) (From Jackson Laboratories) are GFP positive that are distinct from the recipient platelets by flow cytometry assay (FIG. 6A). C57BL/6J mice were injected retro-orbitally with washed GFP platelets (2.5×10^8 per mouse). 60 μl blood was collected from mice and PRP was analyzed by flow cytometry. Quantitative results were expressed as percentage of survived transfused platelets (GFP positive cells at 5 min after transfusion was set to 100%; mean±SD; n=5). […]
# C57BL/6J mice were injected retro-orbitally with fresh washed GFP platelets or GFP platelets stored at 4° C. for 24 hours (2.5×10^8 per mouse) with or without 1 mM RGDS. Blood was collected from mice and platelets were analyzed by flow cytometry. Quantitative results were expressed as percentage of survived transfused platelets (GFP positive cells of transfused fresh platelets at 5 min after transfusion was set to 100%, n=4). […]
# Blood was collected from mice and platelets were analyzed by flow cytometry. Quantitative results were expressed as percentage of survived transfused platelets (GFP positive cells of transfused fresh platelets at 5 min after transfusion was set to 100%, n=4). […]
# [4] = target: T1, αIIbβ3 (Mus musculus, UniProt O54890+Q9QUM0); assay: Thrombin-induced fibrinogen binding to platelets (integrin ligand binding function); type: cell-based, C57BL/6J mice; conditions: 100 μM EGTA
# T1 construct: Washed platelets from C57BL/6J mice suspended in Tyrode's solution; endogenous in cells; host or cells: washed platelets from C57BL/6J mice
# T1 sequence (Q9QUM0 32-1033): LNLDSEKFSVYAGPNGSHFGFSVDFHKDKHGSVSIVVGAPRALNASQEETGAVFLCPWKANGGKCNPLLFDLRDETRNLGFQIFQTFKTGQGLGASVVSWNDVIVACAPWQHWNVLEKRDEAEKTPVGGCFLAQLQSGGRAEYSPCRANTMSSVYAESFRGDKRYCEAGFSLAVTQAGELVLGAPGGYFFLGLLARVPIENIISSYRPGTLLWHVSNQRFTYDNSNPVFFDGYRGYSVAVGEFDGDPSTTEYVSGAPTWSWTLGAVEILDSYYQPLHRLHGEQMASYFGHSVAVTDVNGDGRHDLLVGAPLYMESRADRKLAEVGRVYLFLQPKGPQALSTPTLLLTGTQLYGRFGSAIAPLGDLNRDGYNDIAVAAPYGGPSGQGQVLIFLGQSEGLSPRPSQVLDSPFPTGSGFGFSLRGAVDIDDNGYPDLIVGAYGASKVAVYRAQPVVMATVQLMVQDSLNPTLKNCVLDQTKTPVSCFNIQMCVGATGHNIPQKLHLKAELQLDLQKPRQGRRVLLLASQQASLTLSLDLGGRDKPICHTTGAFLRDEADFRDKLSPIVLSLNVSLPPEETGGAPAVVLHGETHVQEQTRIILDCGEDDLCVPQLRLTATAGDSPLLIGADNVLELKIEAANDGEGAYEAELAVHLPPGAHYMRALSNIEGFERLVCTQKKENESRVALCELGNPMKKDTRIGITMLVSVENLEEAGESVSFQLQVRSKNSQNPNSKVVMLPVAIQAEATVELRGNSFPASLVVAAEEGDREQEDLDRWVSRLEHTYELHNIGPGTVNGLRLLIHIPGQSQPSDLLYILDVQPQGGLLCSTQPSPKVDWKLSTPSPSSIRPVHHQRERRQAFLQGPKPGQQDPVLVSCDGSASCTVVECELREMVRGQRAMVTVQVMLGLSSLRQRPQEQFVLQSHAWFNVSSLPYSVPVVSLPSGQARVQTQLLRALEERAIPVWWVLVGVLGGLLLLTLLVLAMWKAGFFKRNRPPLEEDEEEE
# T1 sequence (O54890 26-787): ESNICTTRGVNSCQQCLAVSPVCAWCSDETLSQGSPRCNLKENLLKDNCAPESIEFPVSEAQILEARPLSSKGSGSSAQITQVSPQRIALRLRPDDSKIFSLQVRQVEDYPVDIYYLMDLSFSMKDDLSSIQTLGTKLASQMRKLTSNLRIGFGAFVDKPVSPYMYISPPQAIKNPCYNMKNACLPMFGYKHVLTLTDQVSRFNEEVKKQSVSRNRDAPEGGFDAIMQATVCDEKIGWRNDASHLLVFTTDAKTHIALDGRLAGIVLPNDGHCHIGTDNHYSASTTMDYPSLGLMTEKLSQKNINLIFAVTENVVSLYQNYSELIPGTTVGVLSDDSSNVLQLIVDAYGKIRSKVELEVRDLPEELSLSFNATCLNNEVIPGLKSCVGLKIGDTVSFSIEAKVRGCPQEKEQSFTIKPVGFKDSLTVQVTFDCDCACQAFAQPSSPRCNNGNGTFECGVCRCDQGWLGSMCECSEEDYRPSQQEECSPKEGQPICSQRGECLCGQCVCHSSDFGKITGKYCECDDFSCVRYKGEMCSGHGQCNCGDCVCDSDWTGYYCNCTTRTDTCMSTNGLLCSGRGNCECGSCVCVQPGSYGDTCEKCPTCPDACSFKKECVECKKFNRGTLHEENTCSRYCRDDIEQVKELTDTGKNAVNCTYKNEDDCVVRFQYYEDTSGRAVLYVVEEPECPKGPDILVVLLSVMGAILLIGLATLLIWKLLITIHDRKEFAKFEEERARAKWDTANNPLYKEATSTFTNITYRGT
# Protocol: Platelets were then added with buffer or 1 mM CaCl2). Washed platelets suspended in Tyrode's solution with 1 mM CaCl2 were used as a control. Platelets were incubated with Oregon Green-labeled fibrinogen and thrombin (0.1 U/ml) at 22° C. for 30 min. Quantitative results were expressed as fibrinogen binding indices (geomean of fluorescence intensity of stimulated platelets/geomean of fluorescence intensity of unstimulated platelets; n=3).
# [5] = tested on: PRP from C57BL/6 mice; assay: Cold storage of mouse PRP: aggregation and platelet counts; type: cell-based; conditions: PRP with EGTA
# Description: This conclusion is drawn based on the experiments using washed platelets. Although a small portion of platelet products uses platelet additive solution (PAS), most platelet products used for transfusion are in plasma. Therefore, whether PRP has a similar phenotype as observed in washed platelets was examined.
# [6] = tested on: PRP prepared from healthy donors; assay: Cold storage of human PRP: platelet counts; type: cell-based; conditions: human PRP (ACD anticoagulant), various time points
# Protocol: Platelet counts were monitored at various time points. […] Fibrinogen binding to platelets increased after cold storage (FIG. 14B). […] The amount of serotonin secreted in the supernatant was then measured.
# [7] = tested on: cold-stored PRP from C57BL/6-Tg(CAGEGFP)1 Osb/J; assay: Clearance of transfused cold-stored GFP platelets in PRP; type: in vivo, C57BL/6J mice; conditions: inclusion of EGTA, retro-orbital injection
# Protocol: C57BL/6J mice were injected retro-orbitally with fresh or cold-stored PRP (2.5×10^8 per mouse) from C57BL/6-Tg(CAGEGFP)1 Osb/J. Blood was collected from the recipients and platelets were analyzed by flow cytometry, n=4). Rapid clearance of cold-stored platelets in PRP is less severe than washed platelets.
# [8] = tested on: washed platelets from C57BL/6 mice; assay: Cold storage of washed mouse platelets: aggregation and single platelet counts; type: cell-based; conditions: presence of EGTA, 4° C. for various time
# Protocol: To investigate the mechanism of the rapid clearance after cold storage, washed platelets from C57BL/6 mice were suspended in Ca^++ free Tyrode's solution (12 mM NaHCO3, 138 mM NaCl, 5.5 mM glucose, 2.9 mM KCl, 2 mM MgCl2, 0.42 mM NaH2PO4, 10 mM HEPES, pH 7.4). and stored at RT or 4° C. Washed platelets from C57BL/6 mice were stored at RT or 4° C. for 24 hours. After storage, platelets were incubated with Oregon Green-labeled fibrinogen at 22° C. for 30 min. Fibrinogen binding to platelets was analyzed by flow cytometry. […] To confirm this observation, single platelet count was measured using a HEMAVET HV950FS multispecies hematology analyzer. Indeed, platelet counts were reduced dramatically after platelets were stored at 4° C. for over 24 hours (FIG. 1B).
# To determine the molecular mechanism by which cold induces platelet activation, washed platelets prepared from C57BL/6 mice were stored at RT, cold, or cold with O-sialoglycoprotein endopeptidase (OSGE). […] GPIbα-dependent platelet activation is one of the major mechanisms leading to rapid clearance of cold-stored platelets.
# If cold-induced aggregation is due to integrin activation, integrin inhibitors should be able to inhibit this process. Washed platelets from C57BL/6 mice, suspended in Ca^++ free Tyrode's solution, were added with 1 mM RGDS and stored at 4° C. for 24 hours. […]
structure (smiles),measurement,setting,value
"O=C(O)CN(CCOCCOCCN(CC(=O)O)CC(=O)O)CC(=O)O [EGTA, ethylene glycol-bis(β-aminoethyl ether)-N,N,N′,N′-tetraacetic acid]",platelet aggregation induced by thrombin,"[1]; EGTA 100 μM at RT, thrombin 0.025 U/ml",inhibited platelet aggregation
same,reversibility of the inhibition of platelet aggregation,"[1]; EGTA 100 μM, then 1 mM CaCl2",reversible
same,platelet adhesion and spreading on fibrinogen,"[2]; 50 μg/mL fibrinogen, 37° C. for 60 minutes",inhibited platelet adhesion and spreading on fibrinogen
same,reversal of the inhibition of adhesion and spreading,[2]; then 1 mM CaCl2,completely reversed
same,platelets that stayed in circulation for more than 2 hours,[3],About 75%
same,rapid clearance of cold-stored platelets,[3],significantly inhibited rapid clearance
same,reversal of the inhibition of fibrinogen binding,[4]; then 1 mM CaCl2,reversed
same,thrombin-induced fibrinogen binding to platelets,"[4]; thrombin 0.1 U/ml, 22° C. for 30 min",completely inhibited
same,reduction in platelet counts by cold storage,[5]; 4° C. for various time,effectively inhibited reduction in platelet counts
same,platelet aggregation in PRP,[5]; cold storage,inhibited platelet aggregation
same,decrease of platelet counts after storage at 4° C.,[6],inhibited
same,quick clearance of cold-stored platelets in PRP,[7],significantly reduced quick clearance
same,cold-induced platelet aggregation,[8],completely inhibited cold-induced platelet aggregation
same,reduction in platelet counts,[8],completely inhibited
